pIC50: −log10 of the molar value.
System: 388556-164-R-J1-PDC complex spheroid viability
Assay: Anticancer human tumor 388556-164-R-J1-PDC patient-derived colon adenocarcinoma cell line growth inhibition [RAS]
Conditions: for pIC50: curve of first compound; for viability, T/C: stronger effect = lower value
Description: RAS pathway inhibitors in Combinations in Complex Spheroids
A high-throughput screen of multi-cell type tumor spheroids was designed to identify active combinations of RAS pathway inhibitors and targeted small molecules. Complex spheroids include a stromal component modeled by human endothelial cells (HUVEC) and fibroblasts modeled by human mesenchymal stem cells (MSCs). The concentration ranges selected for each drug and investigational agent were based upon clinically achievable concentrations if the clinical Cmax of the agent was known.
Compounds. The drugs and investigational agents: abemaciclib (NSC768073), cobimetinib (NSC768068), divarasib (GDC6063, NSC841802), docetaxel (NSC628503), GDC-1971 (RLY-1971, NSC841576), gemcitabine (NSC613327), inavolisib (NSC800729), ipatasertib (NSC767898), KB-0742 (NSC834161), MRTX-1133 (NSC836407), osimertinib (NSC779217), RMC-4630 (NSC839698), RMC-6236 (NSC851965), RMC-6291 (NSC852671), Ro-3306 (NSC812927), sapanisertib (NSC764658), SN-38 (NSC673596), staurosporine (NSC755774), SY5609 (NSC837396), and tovorafenib (DAY101, NSC766906), were obtained from the National Cancer Institute (NCI) Developmental Therapeutics Program Chemical Repository. The FDA-approved anticancer drug set is available from the NCI Developmental Therapeutics Program. […] The stock solutions were prepared in dimethyl sulfoxide (DMSO, Sigma-Aldrich, St. Louis, MO, cat. D2650) at 800-fold the tested concentration and stored at -70 degrees C prior to their use. All drugs and investigational agents were tested over a range starting from a high concentration at or near the clinical Cmax and decreasing in half-log increments. If the clinical Cmax for an agent had not been determined, the highest concentration tested was 10 microM.
Cell Culture. All cells were maintained in an incubator at 37 degrees C and 5% CO2 with 95% humidity. The PDC lines were cultured according to standard operating procedures established by the NCI PDMR. All PDCs were thawed and cultured in Matrigel-coated flasks prepared with a working solution of 1X Ham's F-12 nutrient mix, without supplementation (Invitrogen, Waltham, MA, cat. 11765054), 100 U/mL penicillin-streptomycin (Invitrogen, cat. 15140122), and 2.5% Matrigel (Corning Inc., Corning, NY, cat. 354248) for the first three passages. The 362531-283-R-J2-PDC and 782815-120-R-J1-PDC lines were cultured in 6C/Colon 1B media, which includes advanced DMEM/F-12 (Thermo Fisher Scientific, cat. 12634028), 10 mM HEPES (Thermo Fisher Scientific, cat. 15630080), 1X GlutaMAX supplement (Thermo Fisher Scientific, cat. 35050061), 0.1 mg/mL primocin (InvivoGen, San Diego, CA, cat. ant-pm-2), 10% defined fetal bovine serum, heat inactivated (HyClone Laboratories Inc., Logan, UT, cat. SH30070.03HI), 50% L-WRN conditioned media (ATCC, cat. CRL-3276), 1.25 mM N-Acetyl-L-cysteine (Sigma-Aldrich, cat. A9165), 10 mM nicotinamide (Sigma-Aldrich, cat. N0636), 1X B-27 supplement (Thermo Fisher Scientific, cat. 17504044), 1X N-2 supplement (Thermo Fisher Scientific, cat. 17502048), 50 ng/mL human EGF (Thermo Fisher Scientific, cat. PHG0311), and 10 microM Y-27632 dihydrochloride (Tocris Bioscience, cat. 1254). The K12877-001-R-J1-PDC line was cultured in 6I media, which includes all 6C/Colon 1B media plus 10 ng/mL human FGF-10 (PeproTech, cat. 100-26), 1 ng/mL human FGF-2 (PeproTech, cat. 100-18B), 1 µM prostaglandin E2 (Tocris Bioscience, cat. 2296), […] hydrocortisone (Sigma-Aldrich, cat. H4001), and […] bovine insulin (Sigma-Aldrich, cat. I6634). The K86415-001-R-J1-PDC line was cultured in 6D media, which includes all 6C/Colon 1B media components minus the L-WRN conditioned media. The 485176-168-R4-J1-PDC was cultured in PANC media, which includes all 6C/Colon 1B media plus 100 ng/mL human FGF-10 (PeproTech, cat. 100-26), 500 nM SB-431542 (Selleckchem, cat. S1067), and 10 nM gastrin (Tocris Bioscience, cat. 3006). […]

[1] = second compound 0.0316 µM, first compound 0.0316 µM
[2] = second compound 0.0316 µM, first compound 0.1 µM
[3] = second compound 0.0316 µM, first compound 0.316 µM
[4] = second compound 0.0316 µM, first compound 1 µM
[5] = second compound 0.1 µM, first compound 0.0316 µM
[6] = second compound 0.1 µM, first compound 0.1 µM
[7] = second compound 0.1 µM, first compound 0.316 µM
[8] = second compound 0.1 µM, first compound 1 µM
[9] = second compound 0.316 µM, first compound 0.0316 µM
[10] = second compound 0.316 µM, first compound 0.1 µM
[11] = second compound 0.316 µM, first compound 0.316 µM
[12] = second compound 0.316 µM, first compound 1 µM
[13] = second compound 1 µM, first compound 0.0316 µM
[14] = second compound 1 µM, first compound 0.1 µM
[15] = second compound 1 µM, first compound 0.316 µM
[16] = second compound 1 µM, first compound 1 µM
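Further: spheroids exposed to compound for 7 days before readout.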
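Wherever viability, T/C is given: 100% = DMSO vehicle control luminescence.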

Q: What does the source list for `O=C(c1ccc(F)c(F)c1Nc1ccc(I)cc1F)N1CC(O)([C@@H]2CCCCN2)C1` + C#Cc1c(F)ccc2cc(O)cc(-c3ncc4c(N5CC6CCC(C5)N6)nc(OCC56CCCN5CC(F)C6)nc4c3F)c12?
A: pIC50 (second compound 0.0316 µM): 6.77; pIC50 (second compound 0.1 µM): 6.71; pIC50 (second compound 0.316 µM): 6.87; pIC50 (second compound 1 µM): 6.98; pIC50 (second compound 3.16 µM): 7.07; pIC50 (second compound 10 µM): 7.62; viability, T/C (second compound 0.0316 µM, first compound 0.00316 µM): 100%; viability, T/C (second compound 0.0316 µM, first compound 0.01 µM): 95.1%; viability, T/C [1]: 79%; viability, T/C [2]: 61.6%; viability, T/C [3]: 37.2%; viability, T/C [4]: 22.1%; viability, T/C (second compound 0.1 µM, first compound 0.00316 µM): 99.7%; viability, T/C (second compound 0.1 µM, first compound 0.01 µM): 103%; viability, T/C [5]: 86%; viability, T/C [6]: 66.1%; viability, T/C [7]: 39.2%; viability, T/C [8]: 22.2%; viability, T/C (second compound 0.316 µM, first compound 0.00316 µM): 100%; viability, T/C (second compound 0.316 µM, first compound 0.01 µM): 99.4%; viability, T/C [9]: 64.3%; viability, T/C [10]: 59.3%; viability, T/C [11]: 35.9%; viability, T/C [12]: 17.2%; viability, T/C (second compound 1 µM, first compound 0.00316 µM): 89.8%; viability, T/C (second compound 1 µM, first compound 0.01 µM): 81.8%; viability, T/C [13]: 55.4%; viability, T/C [14]: 60.5%; viability, T/C [15]: 31.6%; viability, T/C [16]: 16.9%; viability, T/C (second compound 3.16 µM, first compound 0.00316 µM): 79%; viability, T/C (second compound 3.16 µM, first compound 0.01 µM): 62.9%; viability, T/C (second compound 3.16 µM, first compound 0.0316 µM): 61.8%; viability, T/C (second compound 3.16 µM, first compound 0.1 µM): 51.5%; viability, T/C (second compound 3.16 µM, first compound 0.316 µM): 32.2%; viability, T/C (second compound 3.16 µM, first compound 1 µM): 15.7%; viability, T/C (second compound 10 µM, first compound 0.00316 µM): 56.7%; viability, T/C (second compound 10 µM, first compound 0.01 µM): 62.1%; viability, T/C (second compound 10 µM, first compound 0.0316 µM): 45.3%; viability, T/C (second compound 10 µM, first compound 0.1 µM): 31%; viability, T/C (second compound 10 µM, first compound 0.316 µM): 19.1%; viability, T/C (second compound 10 µM, first compound 1 µM): 17.1%

Q: With `CC(Nc1ccc2c(c1)OCCn1cc(N3C(=O)OCC3C(F)F)nc1-2)C(N)=O` (centres undefined) + C=CC(=O)N1CCN(c2nc(OCC3CCCN3C)nc3c(F)c(-c4nc(N)cc(C)c4C(F)(F)F)c(Cl)cc23)C(C)C1 as the compound, how does the pIC50 (second compound 0.00316 µM) read?
A: < 5.00

Q: What about the pIC50 (second compound 0.01 µM) of the same compound?
A: < 5.00

Q: What about the pIC50 (second compound 0.0316 µM) of the same compound?
A: < 5.00

Q: And the pIC50 (second compound 0.1 µM)?
A: < 5.00

Q: What about the pIC50 (second compound 0.316 µM) of the same compound?
A: < 5.00

Q: What about the pIC50 (second compound 1 µM) of the same compound?
A: < 5.00

Q: And the viability, T/C (second compound 0.00316 µM, first compound 0.0316 µM)?
A: 108%

Q: What about the viability, T/C (second compound 0.00316 µM, first compound 0.1 µM) of the same compound?
A: 96.9%

Q: And the viability, T/C (second compound 0.00316 µM, first compound 0.316 µM)?
A: 88.6%

Q: And the viability, T/C (second compound 0.00316 µM, first compound 1 µM)?
A: 84.2%

Q: And the viability, T/C (second compound 0.00316 µM, first compound 3.16 µM)?
A: 69.8%

Q: What about the viability, T/C (second compound 0.00316 µM, first compound 10 µM) of the same compound?
A: 71.7%

Q: What about the viability, T/C (second compound 0.01 µM, first compound 0.0316 µM) of the same compound?
A: 103%

Q: What about the viability, T/C (second compound 0.01 µM, first compound 0.1 µM) of the same compound?
A: 94.4%

Q: And the viability, T/C (second compound 0.01 µM, first compound 0.316 µM)?
A: 85%

Q: And the viability, T/C (second compound 0.01 µM, first compound 1 µM)?
A: 77.1%

Q: And the viability, T/C (second compound 0.01 µM, first compound 3.16 µM)?
A: 74%

Q: And the viability, T/C (second compound 0.01 µM, first compound 10 µM)?
A: 63.3%

Q: What about the viability, T/C [1] of the same compound?
A: 109%

Q: And the viability, T/C [2]?
A: 98.9%

Q: And the viability, T/C [3]?
A: 92.1%

Q: What about the viability, T/C [4] of the same compound?
A: 76%

Q: What about the viability, T/C (second compound 0.0316 µM, first compound 3.16 µM) of the same compound?
A: 81.5%

Q: And the viability, T/C (second compound 0.0316 µM, first compound 10 µM)?
A: 65.5%

Q: And the viability, T/C [5]?
A: 110%

Q: What about the viability, T/C [6] of the same compound?
A: 88%

Q: What about the viability, T/C [7] of the same compound?
A: 83%

Q: What about the viability, T/C [8] of the same compound?
A: 77.2%

Q: What about the viability, T/C (second compound 0.1 µM, first compound 3.16 µM) of the same compound?
A: 74.8%

Q: And the viability, T/C (second compound 0.1 µM, first compound 10 µM)?
A: 68.1%

Q: And the viability, T/C [9]?
A: 105%

Q: And the viability, T/C [10]?
A: 114%

Q: And the viability, T/C [11]?
A: 85.4%

Q: What about the viability, T/C [12] of the same compound?
A: 77.8%

Q: What about the viability, T/C (second compound 0.316 µM, first compound 3.16 µM) of the same compound?
A: 69.9%

Q: What about the viability, T/C (second compound 0.316 µM, first compound 10 µM) of the same compound?
A: 64.4%

Q: And the viability, T/C [13]?
A: 99.4%

Q: And the viability, T/C [14]?
A: 88.7%

Q: And the viability, T/C [15]?
A: 84.1%

Q: And the viability, T/C [16]?
A: 84.1%

Q: What about the viability, T/C (second compound 1 µM, first compound 3.16 µM) of the same compound?
A: 75.3%

Q: And the viability, T/C (second compound 1 µM, first compound 10 µM)?
A: 65.7%

Source: PubChem BioAssay AID2060907 (Molecular Pharmacology Branch, DTP, NCI, 2025)
